Series [1] addresses T1, Peroxisome proliferator-activated receptor delta (Homo sapiens) (UniProt Q03181).
T1 sequence (whole entry): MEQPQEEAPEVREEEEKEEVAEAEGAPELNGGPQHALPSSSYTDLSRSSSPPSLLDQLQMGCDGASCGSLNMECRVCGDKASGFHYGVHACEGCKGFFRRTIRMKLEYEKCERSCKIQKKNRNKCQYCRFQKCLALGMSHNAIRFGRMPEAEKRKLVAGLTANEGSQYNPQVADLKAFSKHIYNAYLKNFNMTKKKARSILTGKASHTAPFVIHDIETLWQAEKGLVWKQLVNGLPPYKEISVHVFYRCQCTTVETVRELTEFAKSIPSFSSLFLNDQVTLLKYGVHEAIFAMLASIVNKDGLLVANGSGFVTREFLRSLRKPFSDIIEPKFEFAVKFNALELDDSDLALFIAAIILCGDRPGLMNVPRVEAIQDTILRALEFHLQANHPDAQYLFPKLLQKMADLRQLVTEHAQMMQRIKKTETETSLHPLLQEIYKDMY
Description: Activation of human PPAR-delta LBD expressed in HEK293T cells assessed as induction of receptor activation at 1 uM incubated for 12 to 14 hrs by luciferase reporter gene assay. The following applies: HEK-293T. Format: cell-based.

For the next series, the target named is T2, Bile acid receptor (Homo sapiens, UniProt Q96RI1).
T2 sequence (Q96RI1 whole entry): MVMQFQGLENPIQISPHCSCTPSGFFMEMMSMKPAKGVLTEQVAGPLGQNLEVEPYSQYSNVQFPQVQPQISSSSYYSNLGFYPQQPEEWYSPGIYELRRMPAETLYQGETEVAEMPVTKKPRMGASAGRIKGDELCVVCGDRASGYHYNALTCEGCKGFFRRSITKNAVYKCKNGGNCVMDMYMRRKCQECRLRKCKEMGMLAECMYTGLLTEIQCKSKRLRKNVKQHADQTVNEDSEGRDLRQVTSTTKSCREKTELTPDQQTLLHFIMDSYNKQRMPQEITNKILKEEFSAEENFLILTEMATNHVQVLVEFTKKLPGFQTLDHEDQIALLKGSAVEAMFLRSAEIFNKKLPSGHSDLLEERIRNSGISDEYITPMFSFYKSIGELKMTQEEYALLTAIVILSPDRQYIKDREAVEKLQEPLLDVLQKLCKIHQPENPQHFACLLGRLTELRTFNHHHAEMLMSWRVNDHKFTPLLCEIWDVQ
Description: Activation of human FXR LBD expressed in HEK293T cells assessed as induction of receptor activation incubated for 12 to 14 hrs by luciferase reporter gene assay. Format: cell-based, HEK-293T. A general note: A reporter such as luciferase makes a cellular process visible.

Series [2] deals with T3, Peroxisome proliferator-activated receptor delta (Homo sapiens, UniProt Q03181).
T3 sequence (Q03181 whole entry): T1 sequence (whole entry)
Put plainly: Activation of human PPAR-delta LBD expressed in HEK293T cells assessed as induction of receptor activation incubated for 12 to 14 hrs by luciferase reporter gene assay. Format: cell-based, HEK-293T.

Series [3] addresses T4, Bile acid receptor (Homo sapiens) (UniProt Q96RI1).
T4 sequence (whole entry): T2 sequence (Q96RI1 whole entry)
Description: Activation of human FXR LBD expressed in HEK293T cells assessed as induction of receptor activation at 1 uM incubated for 12 to 14 hrs by luciferase reporter gene assay relative to GW4064. Format: cell-based. The following applies: HEK-293T.

Series [4] concerns the target T1, Peroxisome proliferator-activated receptor delta (Homo sapiens). Description: Activation of human PPAR-delta LBD expressed in HEK293T cells assessed as induction of receptor activation at 1 uM incubated for 12 to 14 hrs by luciferase reporter gene assay relative to L165,041. Format: cell-based. The following applies: HEK-293T.
The target is the same in series [5]. Put plainly: Activation of human PPAR-delta LBD expressed in HEK293T cells assessed as induction of receptor activation at 30 uM incubated for 12 to 14 hrs by luciferase reporter gene assay. Format: cell-based. The following applies: HEK-293T.
The target in series [6] is T4, Bile acid receptor (Homo sapiens). Put plainly: Activation of human FXR LBD expressed in HEK293T cells assessed as induction of receptor activation at 30 uM incubated for 12 to 14 hrs by luciferase reporter gene assay. In kind it is cell-based. The following applies: HEK-293T.
Series [7] shares this target. Put plainly: Activation of human FXR LBD expressed in HEK293T cells assessed as induction of receptor activation at 20 uM incubated for 12 to 14 hrs by luciferase reporter gene assay. Format: cell-based. The following applies: HEK-293T.
A short description of series [8]: Stability in Sprague-Dawley rat liver microsomes assessed as remaining parent compound level at 10 uM presence of NADPH regenerating system by HPLC analysis. In kind it is ADME, Microsome. The following applies: read-out: Stability.
The target in series [9] is T1, Peroxisome proliferator-activated receptor delta (Homo sapiens). Put plainly: Activation of human PPAR-delta LBD expressed in HEK293T cells assessed as induction of receptor activation up to 10 uM incubated for 12 to 14 hrs by luciferase reporter gene assay. Format: cell-based. The following applies: HEK-293T.
The test system of another series is HepG2. Description: Toxicity in human HepG2 cells assessed as reduction in cell viability up to 100 uM incubated for 48 hrs by WST1 assay. Format: cell-based. The following applies: hepg2, 48 h. In general terms: Tetrazolium assays rely on reduction of a dye to a coloured formazan, in cell work by metabolically active cells.
Series [10] addresses T4, Bile acid receptor (Homo sapiens). Put plainly: Activation of human FXR LBD expressed in HEK293T cells assessed as induction of receptor activation at 1 uM incubated for 12 to 14 hrs by luciferase reporter gene assay. The following applies: HEK-293T.
Series [11] can be described thus: Aqueous solubility in pH 8 buffer by HPLC analysis. In kind it is physicochemical.
Series [12] deals with T1, Peroxisome proliferator-activated receptor delta (Homo sapiens). Put plainly: Activation of human PPAR-delta LBD expressed in HEK293T cells assessed as induction of receptor activation at 20 uM incubated for 12 to 14 hrs by luciferase reporter gene assay. In kind it is cell-based. The following applies: HEK-293T.

Structures are written as SMILES. Active and inactive are the calls of the source. The rule behind the calls is not given here.

Regarding `CCCc1c(OCCCOc2ccc(OCC(=O)O)cc2)ccc(C(C)=O)c1O`, in [1], the outcome was Active.
For orientation: EC50 means the concentration that produces a half-maximal response. `CC(C)c1onc(-c2c(Cl)cccc2Cl)c1COc1ccc(COc2ccc(CC(=O)O)cc2)cc1`: the figures for the EC50 (at Bile acid receptor; in series [2]) were 2 µM and 3.1 µM, respectively. In addition, the %max in series [3] is 37%; in series [4], 17%.
For the compound `Cc1cccc(C)c1-c1noc(C(C)C)c1COc1ccc(CCCC(=O)O)cc1`, the EC50 at Bile acid receptor came out at 7.7 µM. The outcome in series [5] was inactive. The %max in [3] was 15%.
For the compound `CC(C)c1onc(-c2c(Cl)cccc2Cl)c1COc1ccc(COc2ccc(CC(=O)O)cc2)c(Cl)c1`, the figures for the EC50 (at Bile acid receptor; in series [2]) were 0.8 µM and 1.8 µM, respectively. The %max in series [3] is 117%; in [4], 15%.
For the compound `CC(C)c1onc(-c2ccccc2)c1COc1ccc(COc2cccc(C(=O)O)c2)cc1`, the half-maximal effective concentration (EC50) in series [2] is over 30 µM. The outcome in [6] was inactive.
`CC(C)c1onc(-c2ccccc2)c1COc1ccc(COc2ccc(CCC(=O)O)cc2)cc1`: the EC50 in series [2] came to 11 µM. Further, the %max in series [4] is 32%. Further, in series [7], the outcome was inactive.
For `CC(C)c1onc(-c2c(Cl)cccc2Cl)c1COc1ccc(CNc2ccc(CC(=O)O)cc2)cc1`, the EC50 on Bile acid receptor came to 1.6 µM; in series [2] it was 3.6 µM. The values for the %max in [3] and in series [4] were 29% and 15%, respectively.
`CC(C)c1onc(-c2ccccc2)c1COc1ccc(COc2ccc(CC(=O)O)cc2)cc1`: the EC50 on Bile acid receptor stood at 11 µM; in series [2], 4.3 µM. In addition, the values for the %max in [3] and in series [4] were 11% and 54%, respectively.
For orientation: solubility means the concentration that dissolves in the medium under given conditions. A high value points to a readily soluble substance. As to `CC(C)c1onc(-c2c(Cl)cccc2Cl)c1COc1ccc(/C=C/c2cccc(C(=O)O)c2)c(Cl)c1`, the remaining at 10 µM in series [8] was determined as 10%. For the same compound, the outcome in series [9] was inactive. Moreover, the Activity result in the series on HepG2 is given as “Non-Toxic”. Besides, the outcome in series [10] was Active. The compound further came in with a solubility in [11] of under 0.1 µg/mL.
Turning to `CC(C)c1onc(-c2ccccc2Cl)c1COc1ccc(CCCC(=O)O)cc1`, the concentration for a half-maximal effect (EC50) worked out at 3.8 µM on Bile acid receptor and 0.8 µM in [2]. Further, the results for the %max in series [3] and in series [4] were 16% and 9%, respectively.
`CC(C)c1onc(-c2c(Cl)cccc2Cl)c1COc1ccc(CCCC(=O)O)cc1`: the EC50 was found to be 6 µM at Bile acid receptor and 0.7 µM in series [2]. The values for the %max in series [3] and in series [4] were 51% and 15%, respectively.
For `CC(C)c1onc(-c2ccccc2)c1COc1ccc(COc2ccc(C(=O)O)cc2)cc1`, the results for the EC50 (on Bile acid receptor; in series [2]) were 2.3 µM and over 30 µM, respectively. Moreover, the %max in series [3] is 5.1%.
Take `CC(C)c1onc(-c2ccccc2C(F)(F)F)c1COc1ccc(CCCC(=O)O)cc1`: the figures for the half-maximal effective concentration (EC50) (at Bile acid receptor; in series [2]) were 4.4 µM and over 30 µM, respectively. For the same compound, the %max in series [3] stood at 37%.
As for `Cc1cc(NCc2ccc(OCc3c(-c4c(Cl)cccc4Cl)noc3C(C)C)cc2)ccc1CC(=O)O`, the EC50 at Bile acid receptor was determined as 1.2 µM; in series [2] it was 9 µM. The values for the %max in [3] and in [4] were 37% and 15%, respectively.
As to `CC(C)c1onc(-c2ccccc2)c1COc1ccc(CCCCCC(=O)O)cc1`, the concentration for a half-maximal effect (EC50) in [2] is over 10 µM. In addition, the result in series [7] was inactive.
On to `CC(C)c1onc(-c2ccccc2)c1COc1ccc(CCCC(=O)O)cc1`, for which the concentration for a half-maximal effect (EC50) was 31 µM at Bile acid receptor and 0.9 µM in series [2]. In addition, the values for the %max in [3] and in series [4] were 11% and 8.7%, respectively.
Regarding `CC(C)c1onc(-c2ccccc2)c1COc1ccc(CCCCC(=O)O)cc1`, the EC50 (at Bile acid receptor; in [2]) was over 30 µM in each case.
In the case of `CC(C)c1onc(-c2ccccc2Cl)c1COc1ccc(COc2ccc(CC(=O)O)cc2)cc1`, the figures for the EC50 (at Bile acid receptor; in [2]) were 2.5 µM and 2 µM, respectively. For the same compound, the %max came to 9% in series [3] and 23% in [4].
`CC(C)c1onc(-c2ccccc2Cl)c1COc1ccc(COc2ccc(OCC(=O)O)cc2)cc1`: the EC50 on Bile acid receptor is 4.7 µM; in series [2] it was 7.2 µM. Also, the results for the %max in series [3] and in series [4] were 17% and 15%, respectively.
Consider `Cc1onc(-c2ccccc2)c1COc1ccc(CCCC(=O)O)cc1`, for which the result in [5] and in series [6] was inactive.
For `CC(C)c1onc(-c2ccccc2Cl)c1COc1ccc(COc2ccc(C(C)(C)C(=O)O)cc2)cc1`, the result in [12] and in [7] was inactive.
Regarding `CC(C)c1onc(-c2ccccc2)c1COc1ccc(Oc2ccc(C(=O)O)cc2)cc1`, the concentration for a half-maximal effect (EC50) on Bile acid receptor stood at 11 µM. Besides, in series [5], the outcome was inactive. In addition, the %max in [3] came out at 13%.
